Assay results reported in patent US6716852B2, “Amino acid derivatives and use thereof as NEP, ACE and ECE inhibitors” (Les Laboratories Servier, priority 2000, dated 2004).

Experiments:
Format in all cases: biochemical
[1] = target: T1, angiotensin I converting enzyme (ACE) (Rattus norvegicus, UniProt P47820); assay: Inhibition of angiotensin I converting enzyme (substrate N-Cbz-Phe-His-Leu); details: ACE purified from rat testicle
T1 construct: ACE is purified from rat testicle; from tissue; host or cells: rat testicle
T1 sequence (P47820 1-775 isoform P47820-2): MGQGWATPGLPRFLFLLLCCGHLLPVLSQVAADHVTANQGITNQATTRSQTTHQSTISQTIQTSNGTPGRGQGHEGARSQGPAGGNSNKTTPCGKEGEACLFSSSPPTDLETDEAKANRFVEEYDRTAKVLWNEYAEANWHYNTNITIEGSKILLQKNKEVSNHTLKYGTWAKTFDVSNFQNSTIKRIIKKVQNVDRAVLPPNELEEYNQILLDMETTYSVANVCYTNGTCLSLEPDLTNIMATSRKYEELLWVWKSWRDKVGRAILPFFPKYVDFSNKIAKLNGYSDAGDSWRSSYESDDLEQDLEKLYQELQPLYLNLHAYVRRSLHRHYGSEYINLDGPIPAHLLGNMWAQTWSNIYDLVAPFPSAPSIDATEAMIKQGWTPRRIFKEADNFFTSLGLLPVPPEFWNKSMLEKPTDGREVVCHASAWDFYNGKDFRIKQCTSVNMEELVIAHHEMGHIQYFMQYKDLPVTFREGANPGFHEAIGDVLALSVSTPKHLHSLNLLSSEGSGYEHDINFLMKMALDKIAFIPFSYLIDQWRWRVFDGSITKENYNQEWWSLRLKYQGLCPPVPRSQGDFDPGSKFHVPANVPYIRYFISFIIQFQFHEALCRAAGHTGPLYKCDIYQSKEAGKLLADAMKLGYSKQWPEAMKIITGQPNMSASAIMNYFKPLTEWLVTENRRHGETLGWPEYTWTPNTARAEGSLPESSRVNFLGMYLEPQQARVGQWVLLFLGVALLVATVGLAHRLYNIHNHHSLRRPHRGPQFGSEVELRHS
Experimental: ACE is purified from rat testicle according to the procedure described by Pantaliano et al. (Biochemistry, 1984, 23, pp. 1037-1042).
The enzyme activity is measured using the synthetic substrate N-Cbz-Phe-His-Leu, Km=[…] (Piquilloud Y. et al., Biochem. Biophys. Acta, 1970, 206, pp. 136-142).

Neutral endopeptidase = target: T2, Neutral endopeptidase (Oryctolagus cuniculus, UniProt P08049); assay: Inhibition of neutral endopeptidase (fluorescent substrate DGNPA); details: NEP purified from rabbit kidney
T2 construct: Neutral endopeptidase is purified from rabbit kidney; from tissue; host or cells: rabbit kidney
T2 sequence (P08049 1-750): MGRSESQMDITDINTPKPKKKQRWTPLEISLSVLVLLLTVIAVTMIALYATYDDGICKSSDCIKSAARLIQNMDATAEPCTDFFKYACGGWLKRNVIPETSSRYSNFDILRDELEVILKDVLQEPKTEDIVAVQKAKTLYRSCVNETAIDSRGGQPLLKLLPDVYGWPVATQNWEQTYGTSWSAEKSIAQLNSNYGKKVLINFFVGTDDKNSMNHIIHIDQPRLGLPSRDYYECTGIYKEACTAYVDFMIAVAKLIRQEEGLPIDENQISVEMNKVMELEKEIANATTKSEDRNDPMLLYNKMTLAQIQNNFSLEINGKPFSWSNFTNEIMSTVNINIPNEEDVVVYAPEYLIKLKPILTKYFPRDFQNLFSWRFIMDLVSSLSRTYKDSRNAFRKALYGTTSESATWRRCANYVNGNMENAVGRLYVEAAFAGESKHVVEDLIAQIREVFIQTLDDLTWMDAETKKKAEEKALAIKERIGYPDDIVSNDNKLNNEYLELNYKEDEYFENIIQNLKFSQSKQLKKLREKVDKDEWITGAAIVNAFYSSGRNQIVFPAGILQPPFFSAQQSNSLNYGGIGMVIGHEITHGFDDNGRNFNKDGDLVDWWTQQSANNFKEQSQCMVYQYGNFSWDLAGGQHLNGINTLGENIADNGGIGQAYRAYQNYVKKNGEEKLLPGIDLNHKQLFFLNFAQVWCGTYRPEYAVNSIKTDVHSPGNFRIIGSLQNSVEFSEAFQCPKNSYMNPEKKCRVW
Source text: Neutral endopeptidase is purified from rabbit kidney according to the procedure described by Aubry et al. (Biochem. Cell Biol., 1987, 65, pp. 1037-1042).

ECE-1c = target: T3, ECE-1c (Homo sapiens, UniProt P42892); assay: Inhibition of endothelin converting enzyme (radiolabelled BigET-1 (19-35) substrate); details: ECE-1c expressed in Cos-7 cells; preincubated 10 minutes at 37° C., pH 6.5; read-out: Ki, inhibition of big endothelin converting enzyme
T3 construct: made in house; host or cells: Cos-7 cells (pcDNA3 vector, electroporation); membrane fraction extracted with 1% beta-octylglucose
T3 sequence (P42892 1-754 isoform P42892-3): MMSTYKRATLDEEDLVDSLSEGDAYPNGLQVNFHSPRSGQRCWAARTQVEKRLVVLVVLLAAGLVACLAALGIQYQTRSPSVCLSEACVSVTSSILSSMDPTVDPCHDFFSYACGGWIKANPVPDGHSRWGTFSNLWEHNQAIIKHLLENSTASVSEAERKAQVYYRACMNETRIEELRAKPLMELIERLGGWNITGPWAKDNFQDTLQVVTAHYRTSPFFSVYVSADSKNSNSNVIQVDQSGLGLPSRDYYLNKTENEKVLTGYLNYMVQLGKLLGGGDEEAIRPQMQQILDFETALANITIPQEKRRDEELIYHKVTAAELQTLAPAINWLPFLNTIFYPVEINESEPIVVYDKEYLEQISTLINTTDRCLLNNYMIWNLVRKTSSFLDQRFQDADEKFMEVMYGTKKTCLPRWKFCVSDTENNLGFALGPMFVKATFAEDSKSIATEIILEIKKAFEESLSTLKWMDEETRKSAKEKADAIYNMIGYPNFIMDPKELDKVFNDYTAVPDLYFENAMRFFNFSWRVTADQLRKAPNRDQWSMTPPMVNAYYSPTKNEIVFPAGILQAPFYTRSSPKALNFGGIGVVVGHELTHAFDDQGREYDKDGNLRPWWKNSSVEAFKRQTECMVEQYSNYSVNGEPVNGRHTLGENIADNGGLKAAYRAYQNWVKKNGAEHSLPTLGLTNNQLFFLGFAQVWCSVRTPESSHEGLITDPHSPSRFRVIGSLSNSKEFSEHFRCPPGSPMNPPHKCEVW
Experimental: The cDNA of ECE-1c (membrane form of the enzyme, Biochem. J., 1997, 328, pp. 871-877), was inserted into a pcDNA3 eucaryotic expression vector and then transfected by electroporation and expressed in Cos-7 cells.
To measure the ECE activity, the cells are homogenised and the membrane fraction is recovered. The enzyme is extracted by dissolution in β-octylglucose (1%).
The peptide BigET-1 (19-35) was prepared by solid phase synthesis in Fmoc chemistry and purified by semi-preparative HPLC. The propionylation of the peptide was effected by the action of N-succinimidyl-[2,3-^3H]-propionate on the peptide BigET-1 (19-35) and the radiolabelled product was purified by HPLC. The specific activity of the substrate is 97 Ci/mmole.
ECE-1c (10 μl of a solution diluted to 1/10) is dissolved in 400 μl of Trismaleate 50 mM, pH 6.5, in the presence of 250 mM NaCl. The reaction is initiated by the addition of 10 μl of the radioactive substrate (final concentration 1×10^−9 M). After incubation for 1 hour at 37° C., the reaction is stopped by the addition of 600 μl of ethyl acetate. The metabolite is separated from the intact substrate by liquid—liquid extraction. The radioactivity of the metabolite is determined by liquid scintillation. The kinetic constants of the substrate are: Km=[…] and Vmax=2.98±0.24 mmol/mg. prot./min.
The controls of 0% and 100% degradation are obtained, respectively, by incubation of the substrate with the inactivated enzyme and with the native enzyme in the absence of inhibitors.

Row | SMILES | Ki [1] | Ki (Neutral endopeptidase) | Ki (ECE-1c)
1 | O=C(N[C@@H](Cc1c[nH]c2ccccc12)C(=O)O)C(CS)C1CCc2cc(Br)ccc21 (stereo partly drawn) [13 (2S-3R-4S), N-[2-(5-Bromo-2,3-dihydro-1H-inden-1-yl)-3-mercaptopropanoyl]-tryptophan] | 4.09 ± 0.49 nM | 3.28 ± 0.35 nM | 24.4 ± 1.4 nM
2 | O=C(N[C@@H](Cc1c[nH]c2ncccc12)C(=O)O)C(CS)C1CCc2cc(Br)ccc21 (stereo partly drawn) [33 (2S-3R-4S), N-[2-(5-Bromo-2,3-dihydro-1H-inden-1-yl)-3-mercaptopropanoyl]-3-(1H-pyrrolo [2,3-b]pyridin-3-yl)alanine] | 1.32 ± 0.17 nM | 2.91 ± 0.67 nM | 23.3 ± 3.2 nM
3 | O=C(N[C@@H](Cc1c[nH]c2c1ccc1cccnc12)C(=O)O)C(CS)C1CCc2cc(Br)ccc21 (stereo partly drawn) [63 (2S-3R-4S), N-[2-(5-Bromo-2,3-dihydro-1H-inden-1-yl)-3-mercaptopropanoyl]-3-(1H-pyrrolo[3,2-h]quinolin-3-yl)alanine] | 3.7 ± 0.38 nM | 10.2 ± 0.3 nM | 21.2 ± 2.5 nM
